Experiments:
U251 = assay: cells; details: Homo sapiens, U-251, 48 h; for GI50: U251, 48 h; for CC50: read-out: LC50
MDA-MB-468 = assay: cells; details: Homo sapiens, MDA-MB-468, 48 h; for CC50: read-out: LC50
PC-3 = assay: cells; details: Homo sapiens, PC-3, 48 h; for CC50: read-out: LC50
HS 578T = assay: cells; details: Homo sapiens, 48 h; for CC50: read-out: LC50
UACC-62 = assay: cells; details: Homo sapiens, UACC-62, 48 h; for CC50: read-out: LC50
UO-31 = assay: cells; details: Homo sapiens, UO-31, 48 h; for CC50: read-out: LC50
MOLT-4 = assay: cells; details: Homo sapiens, MOLT-4, 48 h
OVCAR-3 = assay: cells; details: Homo sapiens, OVCAR-3, 48 h; for CC50: read-out: LC50
786-0 = assay: cells; details: Homo sapiens, 786-0, 48 h; for CC50: read-out: LC50
NCI-H322M = assay: cells; details: Homo sapiens, 48 h; for CC50: read-out: LC50
M14 = assay: cells; details: Homo sapiens, M14, 48 h; for CC50: read-out: LC50
HOP-92 = assay: cells; details: Homo sapiens, HOP-92, 48 h; for CC50: read-out: LC50
SK-MEL-5 = assay: cells; details: Homo sapiens, SK-MEL-5, 48 h; for CC50: read-out: LC50
SF-268 = assay: cells; details: Homo sapiens, SF-268, 48 h; for CC50: read-out: LC50
HT29 = assay: cells; details: Homo sapiens, HT-29, 48 h; for CC50: read-out: LC50
RPMI-8226 = assay: cells; details: Homo sapiens, RPMI-8226, 48 h; for CC50: read-out: LC50
ACHN = assay: cells; details: Homo sapiens, 48 h; for CC50: read-out: LC50
COLO 205 = assay: cells; details: Homo sapiens, COLO 205, 48 h; for CC50: read-out: LC50
SNB-19 = assay: cells; details: Homo sapiens, SNB-19, 48 h; for CC50: read-out: LC50
SF-295 = assay: cells; details: Homo sapiens, SF-295, 48 h; for CC50: read-out: LC50
SF-539 = assay: cells; details: Homo sapiens, SF-539, 48 h; for CC50: read-out: LC50, SF-539, 48 h
LOX IMVI = assay: cells; details: Homo sapiens, 48 h; for CC50: read-out: LC50, LOX IMVI, 48 h
HOP-62 = assay: cells; details: Homo sapiens, HOP-62, 48 h; for CC50: read-out: LC50
A549/ATCC = assay: cells; details: Homo sapiens, A549, 48 h; for CC50: read-out: LC50
HCC-2998 = assay: cells; details: Homo sapiens, HCC 2998, 48 h; for CC50: read-out: LC50
HCT-116 = assay: cells; details: Homo sapiens, HCT-116, 48 h; for CC50: read-out: LC50
BT-549 = assay: cells; details: Homo sapiens, BT-549, 48 h; for CC50: read-out: LC50
NCI-H226 = assay: cells; details: Homo sapiens, NCI-H226, 48 h; for CC50: read-out: LC50
RXF 393 = assay: cells; details: Homo sapiens, RXF 393, 48 h; for CC50: read-out: LC50
60 cancer cell lines = assay: NCI-60 one-dose screen (10 μM); format: cell-based; details: Homo sapiens; one dose of 10 μM, mean over 60 cancer cell lines; read-out: Mean Growth Percent (MGP)
Excerpt: Additionally, the mean of the growth percentages (MGP) of each compound against all the 60 cancer cell lines is also reported, which is used as one of the selection criteria to continue with tests at five concentration doses.

MDA-MB-231/ATCC = assay: cells; details: Homo sapiens, MDA-MB-231, 48 h; for CC50: read-out: LC50
A498 = assay: cells; details: Homo sapiens, A498, 48 h; for CC50: read-out: LC50
UACC-257 = assay: cells; details: Homo sapiens, UACC-257, 48 h; for CC50: read-out: LC50
HCT-15 = assay: cells; details: Homo sapiens, HCT-15, 48 h; for CC50: read-out: LC50
NCI-H23 = assay: cells; details: Homo sapiens, NCI-H23, 48 h; for CC50: read-out: LC50
SNB-75 = assay: cells; details: Homo sapiens, SNB-75, 48 h; for CC50: read-out: LC50
EKVX = assay: cells; details: Homo sapiens, 48 h; for CC50: read-out: LC50

In the case of `COc1cc(/C=C/C(=O)c2ccc(S(=O)(=O)NCCNc3nc(Nc4ccc(F)cc4)nc(N(C)C)n3)cc2)cc(OC)c1OC` [24d], the GI50 (U251) is reported as 1.81 µM, the CC50 (U251) is reported as 6.89 µM and the GI50 (MDA-MB-468) is reported as 2 µM. The CC50 (MDA-MB-468) was 11.5 µM, the GI50 (PC-3) was 3.22 µM and the CC50 (PC-3) was > 100 µM. For the same compound, the GI50 (HS 578T) was 8.24 µM, the CC50 (HS 578T) was > 100 µM and the GI50 (UACC-62) was 8.28 µM. For the same compound, the CC50 (UACC-62) was 48.8 µM, the GI50 (UO-31) was 4.45 µM and the CC50 (UO-31) was 41.4 µM. The GI50 (MOLT-4) was 2.74 µM, the CC50 (MOLT-4; read-out: LC50) was > 100 µM and the GI50 (OVCAR-3) was 6.18 µM. The CC50 (OVCAR-3) was 98.4 µM, the GI50 (786-0) was 2.94 µM and the CC50 (786-0) was 51.9 µM. For the same compound, the GI50 (NCI-H322M) was 10.1 µM, the CC50 (NCI-H322M) was > 100 µM and the GI50 (M14) was 3.28 µM. For the same compound, the CC50 (M14) was 47.4 µM, the GI50 (HOP-92) was 11.5 µM and the CC50 (HOP-92) was > 100 µM. The GI50 (SK-MEL-5) was 3.4 µM, the CC50 (SK-MEL-5) was 36.2 µM and the GI50 (SF-268) was 11.7 µM. For the same compound, the CC50 (SF-268) was > 100 µM, the GI50 (HT29) was 1.93 µM and the CC50 (HT29) was 6.46 µM. For the same compound, the GI50 (RPMI-8226) was 2.5 µM, the CC50 (RPMI-8226) was > 100 µM and the GI50 (ACHN) was 5.13 µM. The CC50 (ACHN) was 60.4 µM, the GI50 (COLO 205) was 4.78 µM and the CC50 (COLO 205) was 86.1 µM. For the same compound, the GI50 (SNB-19) was 11.2 µM, the CC50 (SNB-19) was 48.7 µM and the GI50 (SF-295) was 2.16 µM. It also gave a CC50 (SF-295) of 11.1 µM, a GI50 (SF-539) of 1.71 µM and a CC50 (SF-539) of 5.93 µM. It also gave a GI50 (LOX IMVI) of 1.71 µM, a CC50 (LOX IMVI) of 5.62 µM and a GI50 (HOP-62) of 14.1 µM. For the same compound, the CC50 (HOP-62) was 59.9 µM, the GI50 (A549/ATCC) was 12.2 µM and the CC50 (A549/ATCC) was 78.6 µM. The GI50 (HCC-2998) was 1.62 µM, the CC50 (HCC-2998) was 5.52 µM and the GI50 (HCT-116) was 1.77 µM. For the same compound, the CC50 (HCT-116) was 7.66 µM, the GI50 (BT-549) was 2.25 µM and the CC50 (BT-549) was 31.2 µM. The GI50 (NCI-H226) was 4.47 µM, the CC50 (NCI-H226) was > 100 µM and the GI50 (RXF 393) was 1.45 µM. For the same compound, the CC50 (RXF 393) was 6.74 µM, the activity at 10 µM (60 cancer cell lines) was -0.31% and the GI50 (MDA-MB-231/ATCC) was 4.41 µM. For the same compound, the CC50 (MDA-MB-231/ATCC) was 83.4 µM, the GI50 (A498) was 11.3 µM and the CC50 (A498) was 50.3 µM. The GI50 (UACC-257) was 15.1 µM, the CC50 (UACC-257) was 65.1 µM and the GI50 (HCT-15) was 1.8 µM. It also gave a CC50 (HCT-15) of 6.57 µM, a GI50 (NCI-H23) of 3.03 µM and a CC50 (NCI-H23) of 34.9 µM. The CC50 (SNB-75) was 91.9 µM, the GI50 (EKVX) was 4.85 µM and the CC50 (EKVX) was 42.2 µM.
For `CN(C)c1nc(NCCNS(=O)(=O)c2ccc(C3=Nc4c(N)nc(N)nc4NC(c4ccc(Cl)cc4)C3)cc2)nc(Nc2ccc(F)cc2)n1` (stereo not drawn) [31e], the GI50 (U251) was 5.14 µM, the CC50 (U251) was > 100 µM and the GI50 (MDA-MB-468) was 1.92 µM. The CC50 (MDA-MB-468) was 4.92 µM, the GI50 (PC-3) was 3.44 µM and the CC50 (PC-3) was > 100 µM. The GI50 (HS 578T) was 7.15 µM, the CC50 (HS 578T) was > 100 µM and the GI50 (UACC-62) was 6.46 µM. The CC50 (UACC-62) was > 100 µM, the GI50 (UO-31) was > 100 µM and the CC50 (UO-31) was > 100 µM. The GI50 (MOLT-4) was 2.68 µM, the GI50 (OVCAR-3) was 7.45 µM and the CC50 (OVCAR-3) was > 100 µM. For the same compound, the GI50 (786-0) was 6.21 µM, the CC50 (786-0) was > 100 µM and the GI50 (NCI-H322M) was > 100 µM. For the same compound, the CC50 (NCI-H322M) was > 100 µM, the GI50 (M14) was 3.15 µM and the CC50 (M14) was 11.5 µM. The GI50 (HOP-92) was 2.53 µM, the CC50 (HOP-92) was 13.2 µM and the GI50 (SK-MEL-5) was 3.45 µM. For the same compound, the CC50 (SK-MEL-5) was 14.3 µM, the GI50 (SF-268) was 5.74 µM and the CC50 (SF-268) was > 100 µM. It also gave a GI50 (HT29) of 2.68 µM, a CC50 (HT29) of 7.54 µM and a GI50 (RPMI-8226) of 3.19 µM. For the same compound, the CC50 (RPMI-8226) was > 100 µM, the GI50 (ACHN) was > 100 µM and the CC50 (ACHN) was > 100 µM. The GI50 (COLO 205) was 5.65 µM, the CC50 (COLO 205) was 25.6 µM and the GI50 (SNB-19) was 5.67 µM. For the same compound, the CC50 (SNB-19) was > 100 µM, the GI50 (SF-295) was 6.2 µM and the CC50 (SF-295) was > 100 µM. The GI50 (SF-539) was 3.3 µM, the CC50 (SF-539) was > 100 µM and the GI50 (LOX IMVI) was 1.77 µM. For the same compound, the CC50 (LOX IMVI) was 3.55 µM, the GI50 (HOP-62) was > 100 µM and the CC50 (HOP-62) was > 100 µM. The GI50 (A549/ATCC) was > 100 µM, the CC50 (A549/ATCC) was > 100 µM and the GI50 (HCC-2998) was 3.14 µM. The CC50 (HCC-2998) was 18.4 µM, the GI50 (HCT-116) was 3.77 µM and the CC50 (HCT-116) was > 100 µM. The GI50 (BT-549) was 3.96 µM, the CC50 (BT-549) was 28.7 µM and the GI50 (NCI-H226) was > 100 µM. The CC50 (NCI-H226) was > 100 µM, the GI50 (RXF 393) was 2.27 µM and the CC50 (RXF 393) was 8.75 µM. The activity at 10 µM (60 cancer cell lines) was 30.8%, the GI50 (MDA-MB-231/ATCC) was 3.73 µM and the CC50 (MDA-MB-231/ATCC) was 65.7 µM. The GI50 (A498) was 58.4 µM, the CC50 (A498) was > 100 µM and the GI50 (UACC-257) was 8.07 µM. The CC50 (UACC-257) was > 100 µM, the GI50 (HCT-15) was > 100 µM and the CC50 (HCT-15) was > 100 µM. For the same compound, the GI50 (NCI-H23) was 72.7 µM, the CC50 (NCI-H23) was > 100 µM and the GI50 (SNB-75) was 3.76 µM. For the same compound, the CC50 (SNB-75) was > 100 µM, the GI50 (EKVX) was 5.05 µM and the CC50 (EKVX) was > 100 µM.
